Measured values: ChEMBL document CHEMBL1201862, “PubChem BioAssay data set” (2004)
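Test compounds were applied to cells in 96-well plates for 48 hours at 5 doses. GI50 = concentration required for 50% inhibition of growth.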 Calls of active or inactive are those of the source. Rule as the data show it: active = GI50 up to about 1.1 µM and inactive = higher.

Tests used:
Assay in all cases: growth of human tumour cells (NCI), 48 h
NCI-H522 = test system: NCI-H522
OVCAR-8 = test system: OVCAR-8
HCT-116 = test system: HCT-116
MOLT-4 = test system: MOLT-4
K562 = test system: K562
A498 = test system: A498
SW-620 = test system: SW-620
TK-10 = test system: TK-10
CAKI-1 = test system: CAKI-1
HCC 2998 = test system: HCC 2998
UACC-62 = test system: UACC-62
U-251 = test system: U-251
SF-268 = test system: SF-268
SF-539 = test system: SF-539
RPMI-8226 = test system: RPMI-8226
LOX IMVI = test system: LOX IMVI
IGROV-1 = test system: IGROV-1
HOP-92 = test system: HOP-92

Compound | GI50 (NCI-H522) | GI50 (OVCAR-8) | GI50 (HCT-116) | GI50 (MOLT-4) | GI50 (K562) | GI50 (A498) | GI50 (SW-620) | GI50 (TK-10) | GI50 (CAKI-1) | GI50 (HCC 2998) | GI50 (UACC-62) | GI50 (U-251) | GI50 (SF-268) | GI50 (SF-539) | GI50 (RPMI-8226) | GI50 (LOX IMVI) | GI50 (IGROV-1) | GI50 (HOP-92)
O=C(O)c1cc(Cl)cc(NC(=O)C(Cl)Cl)c1Cl | > 100 µM (inactive) | > 100 µM (inactive) | > 100 µM (inactive) | > 100 µM (inactive) | > 100 µM (inactive) | > 100 µM (inactive) | > 100 µM (inactive) | > 100 µM (inactive) | > 100 µM (inactive) | > 100 µM (inactive) | > 100 µM (inactive) | > 100 µM (inactive) | > 100 µM (inactive) | > 100 µM (inactive) | > 100 µM (inactive) | > 100 µM (inactive) | > 100 µM (inactive) | 
O=C(NC1CCCC1=O)c1ccccc1 (centres undefined) |  | > 100 µM (inactive) | > 100 µM (inactive) | > 100 µM (inactive) | > 100 µM (inactive) | 13.7 µM (inactive) | > 100 µM (inactive) | > 100 µM (inactive) | > 100 µM (inactive) |  | > 100 µM (inactive) | > 100 µM (inactive) | > 100 µM (inactive) | > 100 µM (inactive) |  |  | > 100 µM (inactive) | > 100 µM (inactive)
CC(=O)Nc1ccc(/C=C/C(=O)c2sc(-c3nc(C)c(C(=O)/C=C/c4ccc(NC(C)=O)cc4)s3)nc2C)cc1 | > 100 µM (inactive) | > 100 µM (inactive) | > 100 µM (inactive) | > 100 µM (inactive) | > 100 µM (inactive) |  | > 100 µM (inactive) | > 100 µM (inactive) | > 100 µM (inactive) | > 100 µM (inactive) | > 100 µM (inactive) | > 100 µM (inactive) | > 10 µM (inactive) | > 100 µM (inactive) |  | > 100 µM (inactive) | > 100 µM (inactive) | 
Cn1c(=O)n(C2(C)CSC2)c2ccccc21 | > 100 µM (inactive) | > 100 µM (inactive) | > 100 µM (inactive) | > 100 µM (inactive) | > 100 µM (inactive) | > 100 µM (inactive) | > 100 µM (inactive) | > 100 µM (inactive) | > 100 µM (inactive) | > 100 µM (inactive) | > 100 µM (inactive) | > 100 µM (inactive) | > 100 µM (inactive) | > 100 µM (inactive) | > 100 µM (inactive) | > 100 µM (inactive) | > 100 µM (inactive) | > 100 µM (inactive)
Brc1ccc(-c2cc3c(cc2C2SCCS2)OCO3)cc1 | 10.9 µM (inactive) | 50.1 µM (inactive) | 30.1 µM (inactive) | 13.4 µM (inactive) | 15.2 µM (inactive) | 19 µM (inactive) | 25.6 µM (inactive) | 31.5 µM (inactive) |  | 29 µM (inactive) |  | 29.7 µM (inactive) | 26.9 µM (inactive) | 11.5 µM (inactive) |  | 0.359 µM (active) | 37.2 µM (inactive) | 
CC(C)(C)c1ccc2c(c1)S(=O)(=O)Nc1ccc(Cl)cc1NS(=O)(=O)c1cc(C(C)(C)C)ccc1OCCOCCOCCO2 |  | 35 µM (inactive) | 35.9 µM (inactive) | > 100 µM (inactive) | > 100 µM (inactive) | > 100 µM (inactive) | 98.9 µM (inactive) | 37.5 µM (inactive) | 98.2 µM (inactive) | > 100 µM (inactive) | 17.9 µM (inactive) | 29.2 µM (inactive) | 31.1 µM (inactive) | 23.5 µM (inactive) |  | > 100 µM (inactive) | 38 µM (inactive) | 18.5 µM (inactive)
O=C(CC1(O)C(=O)Nc2ccccc21)c1ccc(F)cc1 (centres undefined) | > 100 µM (inactive) | > 100 µM (inactive) | > 100 µM (inactive) | > 100 µM (inactive) | > 100 µM (inactive) | > 100 µM (inactive) | > 100 µM (inactive) | > 100 µM (inactive) | > 100 µM (inactive) |  | > 100 µM (inactive) |  | > 100 µM (inactive) | > 100 µM (inactive) | > 100 µM (inactive) | > 100 µM (inactive) | > 100 µM (inactive) | > 100 µM (inactive)
O=C1NC(=O)C2C1C1C=C3c4ccccc4N(c4ccccc4)C32[C@H]2C(=O)NC(=O)[C@@H]12 (some centres undefined) | > 100 µM (inactive) | > 100 µM (inactive) | > 100 µM (inactive) | > 100 µM (inactive) | > 100 µM (inactive) | > 100 µM (inactive) | > 100 µM (inactive) | > 100 µM (inactive) | > 100 µM (inactive) | > 100 µM (inactive) | > 100 µM (inactive) |  | > 100 µM (inactive) | > 100 µM (inactive) | > 100 µM (inactive) | > 100 µM (inactive) | > 100 µM (inactive) | > 100 µM (inactive)
CC(c1ccc2c(c1)CCC1C2CC2OC23CC=CC(=O)[C@]13C)C1C[C@]2(C)O[C@]2(C)[C@H](O)O1 (some centres undefined) | 14 µM (inactive) | 37 µM (inactive) | 0.256 µM (active) | 13.4 µM (inactive) | 3.14 µM (inactive) |  | 25.3 µM (inactive) | > 100 µM (inactive) | 7.64 µM (inactive) | 83.4 µM (inactive) | 91.2 µM (inactive) | 3.61 µM (inactive) | 63.4 µM (inactive) | 82.4 µM (inactive) | 2 µM (inactive) | 20.1 µM (inactive) | 90.6 µM (inactive) | 92.9 µM (inactive)
